Test results taken from patent publication EP4810061A1, “DEUTERATED CAMPTOTHECIN COMPOUND, AND PREPARATION AND USE THEREOF” (Shanghai Qilu Pharmaceutical Research and Development …, priority 2023, dated 2025).

Legend:
[1] = In vitro plasma stability of payload compounds; format: in vitro ADME, Human; details: 5 µM, 37°C
Protocol: (§1) 398 µL of plasma was taken and preheated to 37°C, then co-incubated for 15 minutes. 2 µL of the sample solution was added to the plasma to prepare a final sample concentration of 5 µM. The above solution was co-incubated at 37°C, and 50 µL aliquots were taken at 0, 15, 30, 60, and 120 minutes, followed by the addition of 450 µL of ice-cold acetonitrile (containing the internal standard). The solution was vortexed for 10 minutes, centrifuged, and the remaining content of the parent substrate was detected by the LC-MS/MS method. For specific results, refer to Table 4-1. Table 4-1. Plasma stability of the payload compounds of the present disclosure

[2] = In vitro plasma stability of payload compounds; format: in vitro ADME, CD1 mouse; details: 5 µM, 37°C
Protocol: as §1

[3] = Repeated dose toxicity experiment of payload compounds in rats; format: in vivo, SD rats; details: for Body weight and food consumption: 0.3 mg/kg and 1.0 mg/kg, 7 consecutive days; for rats died during recovery (of the animals with ataxia) / animals showed immediate ataxia after administration: tail vein injection for 7 consecutive days; for animals showed immediate ataxia after administration: main experimental group + TK group
Protocol: Test sample preparation: The test sample was weighed according to the predetermined weight into a glass vial. First, 1 mL of DMSO was added and mixed until the test sample was dissolved, followed by the addition of 1 mL of Solutol HS-15. After mixing thoroughly, 8 mL of sodium chloride injection was added and vortex-mixed to obtain a clear and transparent solution.
SD rats (purchased from Beijing Vital River) were used as test animals. […] During the acclimation period, one cage-side observation was conducted daily; during the dosing period, all animals were subjected to clinical observations twice daily (morning and afternoon). Reactions in various aspects, including the skin, fur, eyes (sclera), ears, nose, oral cavity, chest, abdomen, urogenital area, limbs, as well as respiration, movement, urination, defecation (including urine and feces color), and behavioral changes, were recorded. Daily weight data of the main test group animals were documented. For animals scheduled for dissection, terminal body weight (fasted) was measured prior to dissection. The food intake of the test animals was also recorded. Table 6-1. Results of repeated dose toxicity experiments of the payload compounds of the present disclosure in rats
At the end of the administration, gross dissection was performed on D8 after the administration.

Compound | Residual content of parent payload at 120 minutes (relative to 0 minutes) Human plasma [1] [%] | Residual content of parent payload at 120 minutes (relative to 0 minutes) CD1 mouse plasma [2] [%] | Body weight and food consumption [3] | rats died during recovery (of the animals with ataxia) ([3]; 0.3 mpk dose group) [%] | animals showed immediate ataxia after administration ([3]; 0.3 mpk dose group) | rats died during recovery (of the animals with ataxia) ([3]; 1 mpk dose group) [%] | animals showed immediate ataxia after administration ([3]; 1 mpk dose group) | average food consumption ([3]; ♀ rats, at the same dose, versus control (Dxd) group)
[2H]C1([2H])OC(=O)[C@](O)(CC)c2cc3n(c(=O)c21)Cc1c-3nc2cc(F)c(C)c3c2c1[C@@H](NC(=O)[C@H](O)C1CC1)CC3 [Compound 3] | 105.54 | 104.97 |  |  |  |  |  | 
[2H]C1([2H])OC(=O)[C@](O)(CC)c2cc3n(c(=O)c21)Cc1c-3nc2cc(F)c(C)c3c2c1[C@@H](NC(=O)C[C@@H](C)O)CC3 [Compound 5] | 107.73 | 96.02 |  |  |  |  |  | 
CC[C@@]1(O)C(=O)OCc2c1cc1n(c2=O)Cc2c-1nc1cc(F)c(C)c3c1c2[C@@H](NC(=O)CO)CC3 [Dxd] | 87.57 | 95.42 | Slow/decreased body weight gain; decreased food consumption; | 40 | 31% | 40 | 31% | 
[2H]C1([2H])OC(=O)[C@](O)(CC)c2cc3n(c(=O)c21)Cc1c-3nc2cc(F)c(C)c3c2c1[C@@H](NC(=O)CO)CC3 [Compound 2] | 111.04 | 102.54 | At the same dose, the effects of compound 2 and Dxd on rat body weight and food consumption were essentially comparable; |  | compound 2: 0.3 mpk dose group: 13% (2/16) of animals showed immediate ataxia after administration, followed by gradual recovery; |  | compound 2: 1 mpk dose group: 25% (4/16) of animals showed immediate ataxia after administration, followed by gradual recovery; | for ♀ rats, at the same dose, the average food consumption of the compound 2 group was higher than that of the control group;
[2H]C1([2H])OC(=O)[C@](O)(CC)c2cc3n(c(=O)c21)Cc1c-3nc2cc(F)c(C)c3c2c1[C@@H](NC(=O)C[C@H](C)O)CC3 [Compound 6] | 94.89 | 105.93 |  |  |  |  |  | 
